Measured values as given in US20020026053A1, “Novel 3-(substituted) -2- indolinones compounds and use thereof as inhibitors of protein kinase activity” (priority 1997, published 2002).

Molecular target: T1, Met receptor (EGFR/Met chimeric cells, EMR) (Homo sapiens, UniProt P08581)
T1 construct: expressed in transfected cells; the other entry of the earlier key: EGFR (P00533, Epidermal growth factor receptor)
Assay: Met Autophosphorylation Assay
Format: biochemical
Experimental: Met Autophosphorylation Assay
This assay determines Met tyrosine kinase activity by analyzing Met protein tyrosine kinase levels on the Met receptor.
a. HNTG (5× stock solution): Dissolve 23.83 g HEPES and 43.83 g NaCl in about 350 ml dH2O. Adjust pH to 7.2 with HCl or NaOH, add 500 ml glycerol and 10 ml Triton X-100, mix, add dH2O to 1 L total volume. To make 1 L of 1× working solution add 200 ml 5× stock solution to 800 ml dH2O, check and adjust pH as necessary, store at 4° C.
b. PBS (Dulbecco's Phosphate-Buffered Saline), Gibco Cat. # 450-1300EB (1× solution).
c. Blocking Buffer: in 500 ml dH2O place 100 g BSA, 12.1 g Tris-pH7.5, 58.44 g NaCl and 10 ml Tween-20, dilute to 1 L total volume.
d. Kinase Buffer: To 500 ml dH2O add 12.1 g TRIS (pH 7.2), 58.4 g NaCl, 40.7 g MgCl2 and 1.9 g EGTA; bring to 1 L total volume with dH2O.
e. PMSF (Phenylmethylsulfonyl fluoride), Sigma Cat. # P-7626, to 435.5 mg, add 100% ethanol to 25 ml total volume, vortex.
f. ATP (Bacterial Source), Sigma Cat. # A-7699, store powder at −20° C.; to make up solution for use, dissolve 3.31 mg in 1 ml dH2O.
g. RC-20H HRPO Conjugated Anti-Phosphotyrosine, Transduction Laboratories Cat. # E120H.
h. Pierce 1-Step Turbo™ B-ELISA (3,3′,5,5′-tetramethylbenzidine, Pierce Cat. # 34022.
i. H2SO4, add 1 ml conc.(18 N) to 35 ml dH2O.
j. TRIS HCL, Fischer Cat. # BP152-5; to 121.14 g of material, add 600 ml MilliQ H2O, adjust pH to 7.5 (or 7.2) with HCl, bring volume to 1 L with MilliQ H2O.
k. NaCl, Fischer Cat. # S271-10, make up 5M solution.
m. Na3VO4, Fischer Cat. # S454-50, to 1.8 g material add 80 ml MilliQ H2O, adjust pH to 10.0 with HCl or NaOH, boil in microwave, cool, check pH, repeat procedure until pH stable at 10.0, add MilliQ H2O to 100 ml total volume, make 1 ml aliquots and store at −80° C.
n. MgCl2, Fischer Cat. # M33-500, make up 1M solution.
o. HEPES, Fischer Cat. # BP310-500, to 200 ml MilliQ H2O, add 59.6 g material, adjust pH to 7.5, bring volume to 250 ml total, sterile filter.
p. Albumin, Bovine (BSA), Sigma Cat. # A-4503, to 30 grams material add sterile distilled water to make total volume of 300 ml, store at 4° C.
q. TBST Buffer: to approx. 900 ml dH2O in a 1 L graduated cylinder add 6.057 g TRIS and 8.766 g NaCl, when dissolved, adjust pH to 7.2 with HCl, add 1.0 ml Triton X-100 and bring to 1 L total volume with dH2O.
r. Goat Affinity purified antibody Rabbit IgG (whole molecule), Cappel Cat. # 55641.
s. Anti h-Met (C-28) rabbit polyclonal IgG antibody, Santa Cruz Chemical Cat. # SC-161.
t. Transiently Transfected EGFR/Met chimeric cells (EMR) (Komada, et al., Oncogene, 8:2381-2390 (1993).
u. Sodium Carbonate Buffer, ([…], Fischer Cat. # S495) to 10.6 g material add 800 ml MilliQ H2O, when dissolved adjust pH to 9.6 with NaOH, bring up to 1 L total volume with MilliQ H2O, filter, store at 4° C.
All of the following steps are conducted at room temperature unless it is specifically indicated otherwise. All ELISA plate washing is by rinsing 4× with TBST.
This procedure can be performed the night before or immediately prior to the start of receptor capture.
1. Quick thaw lysates in a 37° C. waterbath with a swirling motion until the last crystals disappear.
2. Lyse cell pellet with 1× HNTG containing 1 mM PMSF. Use 3 ml of HNTG per 15 cm dish of cells. Add ½ the calculated HNTG volume, vortex the tube for 1 min., add the remaining amount of HNTG, vortex for another min.
3. Balance tubes, centrifuge at 10,000× g for 10 min at 4° C.
4. Pool supernatants, remove an aliquot for protein determination.
5. Quick freeze pooled sample in dry ice/ethanol bath. This step is performed regardless of whether lysate will be stored overnight or used immediately following protein determination.
6. Perform protein determination using standard bicinchoninic acid (BCA) method (BCA Assay Reagent Kit from Pierce Chemical Cat. # 23225).
1. Coat Corning 96 well ELISA plates with 5 μg per well Goat anti-Rabbit antibody in Carbonate Buffer for a total well volume of 50 μl. Store overnight at 4° C. […]

T1 sequence (P08581 with tags, fused parts or gaps): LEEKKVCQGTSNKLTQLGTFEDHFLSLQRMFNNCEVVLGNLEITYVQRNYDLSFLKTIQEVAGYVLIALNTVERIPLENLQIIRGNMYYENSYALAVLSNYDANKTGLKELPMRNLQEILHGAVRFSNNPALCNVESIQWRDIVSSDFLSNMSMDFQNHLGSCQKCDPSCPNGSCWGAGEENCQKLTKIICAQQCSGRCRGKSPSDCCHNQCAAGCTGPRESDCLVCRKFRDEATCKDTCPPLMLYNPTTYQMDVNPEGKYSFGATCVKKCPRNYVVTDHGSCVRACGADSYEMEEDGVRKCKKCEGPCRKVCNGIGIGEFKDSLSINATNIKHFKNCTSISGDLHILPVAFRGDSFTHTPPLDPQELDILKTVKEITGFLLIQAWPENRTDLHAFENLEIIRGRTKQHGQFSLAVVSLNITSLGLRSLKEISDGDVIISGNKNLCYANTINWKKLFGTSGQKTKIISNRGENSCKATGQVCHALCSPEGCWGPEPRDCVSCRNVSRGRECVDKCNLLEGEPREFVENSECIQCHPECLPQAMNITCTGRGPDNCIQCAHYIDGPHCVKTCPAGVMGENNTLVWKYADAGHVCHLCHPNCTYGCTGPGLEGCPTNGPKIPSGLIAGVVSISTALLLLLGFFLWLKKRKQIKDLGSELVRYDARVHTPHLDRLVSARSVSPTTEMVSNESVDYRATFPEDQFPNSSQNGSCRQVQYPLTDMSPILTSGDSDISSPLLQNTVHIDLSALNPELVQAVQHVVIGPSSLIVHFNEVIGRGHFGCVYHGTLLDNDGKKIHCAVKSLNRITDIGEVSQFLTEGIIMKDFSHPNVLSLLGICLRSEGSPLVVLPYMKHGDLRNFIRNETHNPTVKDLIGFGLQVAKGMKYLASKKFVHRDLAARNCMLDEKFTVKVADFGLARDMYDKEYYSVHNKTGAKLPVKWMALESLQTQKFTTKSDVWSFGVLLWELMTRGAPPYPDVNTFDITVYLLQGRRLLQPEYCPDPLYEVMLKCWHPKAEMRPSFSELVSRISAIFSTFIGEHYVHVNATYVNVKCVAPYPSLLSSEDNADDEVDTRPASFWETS

`C=C(C)C1CC=C(C=C2C(=O)Nc3c(Br)cc(Br)c(C)c32)CC1` (stereo not drawn) [10731/H04] was tested. Which “Met Kinase % Inhibition (P.130)” value did it give?
Its value is 41.0%.

With `Cc1c(Br)cc(Br)c2c1C(=Cc1coc3ccc(C(C)C)cc3c1=O)C(=O)N2` [10731/H05] as the compound, how does the “Met Kinase % Inhibition (P.130)” value read?
Its value is 32.2%.

`Cc1ccc2occ(C=C3C(=O)Nc4c(Br)cc(Br)c(C)c43)c(=O)c2c1` [10731/H06] was tested. Which “Met Kinase % Inhibition (P.130)” value did it give?
The value was 17.2%.

For `Cc1c(Br)cc(Br)c2c1C(=Cc1coc3ccc([N+](=O)[O-])cc3c1=O)C(=O)N2` [10731/H07], which “Met Kinase % Inhibition (P.130)” value is on record?
The value was 1.8%.

For `Cc1c(Br)cc(Br)c2c1C(=Cc1c[nH]c(=O)[nH]c1=O)C(=O)N2` [10731/H08], which “Met Kinase % Inhibition (P.130)” value is on record?
The value was 10.9%.

For `COc1ccc2[nH]cc(C=C3C(=O)Nc4c(Br)cc(Br)c(C)c43)c2c1` [10731/H09], which “Met Kinase % Inhibition (P.130)” value is on record?
The value was 12.8%.

Which “Met Kinase % Inhibition (P.130)” value does the source give for `Cc1c(Br)cc(Br)c2c1C(=C1C(=O)N(C)c3ccccc31)C(=O)N2` [10731/H10] here?
Its value is 28.4%.

`Cc1c(Br)cc(Br)c2c1C(=CC(c1cccs1)C(F)(F)F)C(=O)N2` (stereo not drawn) [10732/H02] was tested. Which “Met Kinase % Inhibition (P.130)” value did it give?
Its value is 56.8%.

`COc1c(C(C)C)cc(C=C2C(=O)Nc3c(Br)cc(Br)c(C)c32)cc1C(C)C` [10732/H03] was tested. Which “Met Kinase % Inhibition (P.130)” value did it give?
The value was 24.1%.

For `Cc1c(Br)cc(Br)c2c1C(=Cc1cc(C(C)C)c(Oc3ccccc3)c(C(C)C)c1)C(=O)N2` [10732/H04], which “Met Kinase % Inhibition (P.130)” value is on record?
Its value is 57.6%.

How did the “Met Kinase % Inhibition (P.130)” value turn out when `COc1ccc(C=C2C(=O)Nc3c(Br)cc(Br)c(C)c32)cc1C(C)(C)C` [10732/H05] was run?
Its value is 13.3%.

For `Cc1c(Br)cc(Br)c2c1C(=Cc1ccc(OCc3ccccc3)c(C(C)(C)C)c1)C(=O)N2` [10732/H06], which “Met Kinase % Inhibition (P.130)” value is on record?
Its value is 31.1%.

Which “Met Kinase % Inhibition (P.130)” value does the source give for `COc1c(Br)cc(C=C2C(=O)Nc3c(Br)cc(Br)c(C)c32)cc1C(C)(C)C` [10732/H07] here?
Its value is 26.7%.

Which “Met Kinase % Inhibition (P.130)” value does the source give for `Cc1c(Br)cc(Br)c2c1C(=Cc1cc(Br)c(OCc3ccccc3)c(C(C)(C)C)c1)C(=O)N2` [10732/H08] here?
The value was 38.7%.

Which “Met Kinase % Inhibition (P.130)” value does the source give for `COc1c(Cl)cc(C=C2C(=O)Nc3c(Br)cc(Br)c(C)c32)cc1C(C)(C)C` [10732/H09] here?
The value was 49.8%.

Which “Met Kinase % Inhibition (P.130)” value does the source give for `Cc1c(Br)cc(Br)c2c1C(=Cc1cc(Cl)c(OCc3ccccc3)c(C(C)(C)C)c1)C(=O)N2` [10732/H10] here?
Its value is 28.0%.

For `COc1c(I)cc(C=C2C(=O)Nc3c(Br)cc(Br)c(C)c32)cc1C(C)(C)C` [10732/H11], which “Met Kinase % Inhibition (P.130)” value is on record?
The value was 46.7%.

Which “Met Kinase % Inhibition (P.130)” value does the source give for `Cc1c(Br)cc(Br)c2c1C(=Cc1cc(I)c(OCc3ccccc3)c(C(C)(C)C)c1)C(=O)N2` [10733/H02] here?
Its value is 38.9%.

Which “Met Kinase % Inhibition (P.130)” value does the source give for `COc1c([N+](=O)[O-])cc(C=C2C(=O)Nc3c(Br)cc(Br)c(C)c32)cc1C(C)(C)C` [10733/H03] here?
The value was 0.6%.

How did the “Met Kinase % Inhibition (P.130)” value turn out when `COc1c(C(C)(C)C)cc(C=C2C(=O)Nc3c(Br)cc(Br)c(C)c32)cc1C(C)(C)C` [10733/H04] was run?
The value was 11.9%.

`Cc1c(Br)cc(Br)c2c1C(=Cc1cc(C(C)(C)C)c(OCc3ccccc3)c(C(C)(C)C)c1)C(=O)N2` [10733/H05] was tested. Which “Met Kinase % Inhibition (P.130)” value did it give?
Its value is 5.6%.

How did the “Met Kinase % Inhibition (P.130)” value turn out when `COc1c(C)cc(C=C2C(=O)Nc3c(Br)cc(Br)c(C)c32)cc1C` [10733/H06] was run?
The value was 18.4%.

How did the “Met Kinase % Inhibition (P.130)” value turn out when `Cc1cc(C=C2C(=O)Nc3c(Br)cc(Br)c(C)c32)cc(C)c1OCc1ccccc1` [10733/H07] was run?
Its value is −1.3%.

For `COc1cc(Br)cc(C=C2C(=O)Nc3c(Br)cc(Br)c(C)c32)c1O` [10733/H08], which “Met Kinase % Inhibition (P.130)” value is on record?
The value was 41.6%.

For `Cc1c(Br)cc(Br)c2c1C(=Cc1cc(Br)ccc1O)C(=O)N2` [10733/H09], which “Met Kinase % Inhibition (P.130)” value is on record?
Its value is 51.9%.

Which “Met Kinase % Inhibition (P.130)” value does the source give for `Cc1c(Br)cc(Br)c2c1C(=Cc1cc([N+](=O)[O-])ccc1O)C(=O)N2` [10733/H10] here?
The value was 26.5%.

For `COc1c(O)ccc(C=C2C(=O)Nc3c(Br)cc(Br)c(C)c32)c1[N+](=O)[O-]` [10733/H11], which “Met Kinase % Inhibition (P.130)” value is on record?
Its value is 76.7%.
